# Several values for one entry are separate records, joined by “and”; a condition that tells them apart may be missing. Equal values may be shown once. Numbers after ± are expanded uncertainties.
# Details: Crystal, Calculated from knudsen effusion weight loss
SMILES,vapor or sublimation pressure (305.14 K),vapor or sublimation pressure (307.15 K),vapor or sublimation pressure (309.16 K),vapor or sublimation pressure (311.15 K),vapor or sublimation pressure (313.15 K),vapor or sublimation pressure (315.13 K),vapor or sublimation pressure (317.13 K),vapor or sublimation pressure (319.17 K),vapor or sublimation pressure (321.14 K),vapor or sublimation pressure (361.11 K),vapor or sublimation pressure (363.08 K),vapor or sublimation pressure (365.26 K),vapor or sublimation pressure (367.09 K),vapor or sublimation pressure (369.04 K),vapor or sublimation pressure (371.26 K),vapor or sublimation pressure (373.26 K),vapor or sublimation pressure (375 K),vapor or sublimation pressure (377.06 K)
O=[N+]([O-])c1cccc2ccccc12 [1-nitronaphthalene],0.0001735 ± 8.7e-06 kPa and 0.0001744 ± 8.7e-06 kPa and 0.0001738 ± 8.7e-06 kPa,0.0002252 ± 1.1e-05 kPa and 0.0002215 ± 1.1e-05 kPa and 0.000218 ± 1.1e-05 kPa,0.0002813 ± 1.4e-05 kPa and 0.0002824 ± 1.4e-05 kPa and 0.0002776 ± 1.4e-05 kPa,0.0003559 ± 1.8e-05 kPa and 0.0003531 ± 1.8e-05 kPa and 0.0003518 ± 1.8e-05 kPa,0.0004632 ± 2.3e-05 kPa and 0.0004566 ± 2.3e-05 kPa and 0.0004531 ± 2.3e-05 kPa,0.0005799 ± 2.9e-05 kPa and 0.0005723 ± 2.9e-05 kPa and 0.0005739 ± 2.9e-05 kPa,0.0006969 ± 3.5e-05 kPa and 0.0007016 ± 3.5e-05 kPa and 0.0006949 ± 3.5e-05 kPa,0.0008754 ± 4.4e-05 kPa and 0.0008956 ± 4.5e-05 kPa and 0.0008803 ± 4.4e-05 kPa,0.001127 ± 0.00012 kPa and 0.001114 ± 0.00011 kPa and 0.001108 ± 0.00011 kPa,,,,,,,,,
O=[N+]([O-])c1c2ccccc2cc2ccccc12 [9-nitroanthracene],,,,,,,,,,0.00019 ± 1e-05 kPa and 0.000196 ± 1e-05 kPa and 0.000195 ± 1e-05 kPa,0.000236 ± 1.2e-05 kPa and 0.000238 ± 1.2e-05 kPa,0.000291 ± 1.5e-05 kPa and 0.000294 ± 1.5e-05 kPa,0.000354 ± 1.8e-05 kPa and 0.000339 ± 1.7e-05 kPa and 0.000342 ± 1.7e-05 kPa,0.000431 ± 2.2e-05 kPa and 0.000439 ± 2.2e-05 kPa and 0.000427 ± 2.1e-05 kPa,0.000532 ± 2.7e-05 kPa and 0.000526 ± 2.6e-05 kPa and 0.000534 ± 2.7e-05 kPa,0.00064 ± 3.2e-05 kPa and 0.000643 ± 3.2e-05 kPa and 0.000647 ± 3.2e-05 kPa,0.000772 ± 3.9e-05 kPa and 0.000773 ± 3.9e-05 kPa and 0.000761 ± 3.8e-05 kPa,0.000928 ± 4.6e-05 kPa and 0.000924 ± 4.6e-05 kPa
